Experiment [1] concerns P388. Description: Antineoplastic activity against mouse P388 cells. Format: functional.
In experiment [2] the test system is P388. Description: In vivo antineoplastic activity against mouse P388 cells assessed as increase in survival time at 0.08 to 0.60 mg/kg. Format: functional. The settings on record: dose mg/kg 0.08-0.60.
Experiment [3] deals with P388. The experiment can be described thus: In vivo antineoplastic activity against mouse P388 cells upto 2.0 mg/kg. Format: functional, organism-based. Further details: dose 2 mg/kg.

Results on 3 compounds are retold here after ChEMBL document CHEMBL1151349, “The antineoplastic quassinoids of Simaba cuspidata spruce and Ailanthus grandis Prain” (1980).

Activity calls are given as the source filed them. The rule behind the calls is not given here. Where only a bound is given, the exact number is not on record here.

Turning to `CC[C@@](C)(OC(C)=O)C(=O)O[C@H]1C(=O)O[C@@H]2C[C@H]3C(C)=C[C@H](O)[C@@H](O)[C@]3(C)[C@H]3[C@@]4(O)OC[C@]32[C@@H]1[C@@H](C)[C@H]4O`, in the experiment on P388 [1], the outcome was inactive. Regarding `C/C=C(/C)C(=O)O[C@@H]1[C@H]2C(C)=CC(=O)[C@@H](O)[C@]2(C)[C@H]2[C@@]3(O)OC[C@@]24[C@@H]1OC(=O)C[C@H]4[C@@H](C)[C@H]3O`, in the experiment with P388 [1], the GI was less than 0.01 µg/mL. Also, the Activity with P388 [2] is given as 34%.

In the experiment on P388 [1], `C/C=C(/C)C(=O)O[C@@H]1[C@H]2C(C)=C[C@H](O)[C@@H](O)[C@]2(C)[C@H]2[C@@]3(O)OC[C@@]24[C@@H]1OC(=O)C[C@H]4[C@@H](C)[C@H]3O` gave a GI of 0.24 µg/mL. In addition, in the experiment on P388 [3], the result was inactive.
